From PMC3621832, “Non-Complexed Four Cascade Enzyme Mixture: Simple Purification and Synergetic Co-stabilization” (PLoS ONE, 2013)

Legend:
Type in all cases: biochemical
[1] = biological target: T1, fructose bisphosphate aldolase (ALD) (Thermotoga maritima, UniProt Q9WYB0); test: coupled cascade with TIM, FBP and PGI; G6P by enzymatic glucose reagent
T1 construct: gene TM_0273; heat and ammonium sulfate purification
T1 sequence (Q9WYB0 1-315): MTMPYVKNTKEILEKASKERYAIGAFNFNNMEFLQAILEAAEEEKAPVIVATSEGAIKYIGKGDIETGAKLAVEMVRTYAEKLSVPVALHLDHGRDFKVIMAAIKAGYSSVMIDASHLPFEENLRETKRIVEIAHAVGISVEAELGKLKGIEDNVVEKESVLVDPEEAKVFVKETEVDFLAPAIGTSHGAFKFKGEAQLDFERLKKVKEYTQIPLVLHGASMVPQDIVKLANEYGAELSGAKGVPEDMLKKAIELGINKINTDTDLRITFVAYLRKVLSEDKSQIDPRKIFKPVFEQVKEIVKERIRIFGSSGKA

[2] = biological target: T2, fructose bisphosphatase (FBP) (Thermotoga maritima, UniProt O33832); test: FBP activity assay as described elsewhere; also in four-enzyme cascade
T2 construct: gene suhB; recombinant, E. coli, plasmid pCIF (CBM-intein-FBP), tag-free after intein self-cleavage
T2 sequence (O33832 1-256): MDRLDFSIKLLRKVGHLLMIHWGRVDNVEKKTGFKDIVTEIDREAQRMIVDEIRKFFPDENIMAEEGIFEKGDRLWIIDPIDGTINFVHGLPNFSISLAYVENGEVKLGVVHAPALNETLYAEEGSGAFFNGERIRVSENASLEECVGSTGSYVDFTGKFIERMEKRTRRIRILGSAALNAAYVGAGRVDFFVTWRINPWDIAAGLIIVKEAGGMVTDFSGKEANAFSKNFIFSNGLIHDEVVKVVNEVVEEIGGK

[3] = biological target: T3, phosphoglucose isomerase (PGI) (Acetivibrio thermocellus, UniProt A3DBX9); test: G6P formation by enzymatic glucose kit; conditions: 100 mM HEPES pH 7.5, 10 mM MgCl2, 0.5 mM MnCl2, 60°C
T3 construct: recombinant, E. coli, plasmid pCIP (CBM-intein-PGI), tag-free after intein self-cleavage
T3 sequence (A3DBX9 1-448): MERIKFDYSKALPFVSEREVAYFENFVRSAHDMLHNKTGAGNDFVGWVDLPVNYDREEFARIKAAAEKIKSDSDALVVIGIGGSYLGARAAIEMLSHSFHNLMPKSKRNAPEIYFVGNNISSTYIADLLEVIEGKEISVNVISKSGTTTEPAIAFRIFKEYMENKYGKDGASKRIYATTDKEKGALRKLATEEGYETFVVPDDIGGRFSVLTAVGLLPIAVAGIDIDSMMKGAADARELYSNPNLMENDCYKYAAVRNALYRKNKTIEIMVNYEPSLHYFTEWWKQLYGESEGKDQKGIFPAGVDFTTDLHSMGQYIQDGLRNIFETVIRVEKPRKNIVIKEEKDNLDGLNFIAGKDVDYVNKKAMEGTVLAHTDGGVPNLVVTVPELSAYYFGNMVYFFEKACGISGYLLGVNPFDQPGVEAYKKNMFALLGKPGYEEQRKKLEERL

With `O=C(CO)COP(=O)(O)O` [dihydroxyacetone phosphate] the “coupled cascade with TIM, FBP and PGI; G6P by enzymatic glucose reagent” value ([1]; co-substrate G3P) was “G3P and DHAP were substrates and F16P was the product”.
With `O=P(O)(O)OC[C@H]1OC(O)(COP(=O)(O)O)[C@@H](O)[C@@H]1O` (stereo partly shown) [fructose 1,6-bisphosphate] the “FBP activity assay as described elsewhere; also in four-enzyme cascade” value [2] was “FBP catalyses the irreversible conversion of F16P to fructose 6-phosphate (F6P)”.
For `O=P(O)(O)OC[C@H]1OC(O)(CO)[C@@H](O)[C@@H]1O` (stereo partly shown) [fructose 6-phosphate], the “G6P formation by enzymatic glucose kit” value [3] was “PGI reversibly converts fructose-6-phosphate (F6P) and glucose-6-phosphate (G6P)”.
With `O=C[C@H](O)COP(=O)(O)O` [glyceraldehyde-3-phosphate] the “coupled cascade with TIM, FBP and PGI; G6P by enzymatic glucose reagent” value ([1]; co-substrate DHAP) was “G3P and DHAP were substrates and F16P was the product”.
